Assay results taken from patent publication US5481013A, “Carboxylic acid derivatives” (Ciba-Geigy Corporation, priority 1992, dated 1996).

Legend:
Format in all cases: in vivo
Aphis craccivora = assay: Activity against Aphis craccivora; conditions: 400 ppm spray on pea seedlings, 20° C., evaluated after 3 and 6 days, read-out: percentage reduction in population (% activity)
Protocol: Pea seedlings are infected with Aphis craccivora, subsequently sprayed with a spray mixture comprising 400 ppm of the active ingredient, and incubated at 20° C. The test is evaluated after 3 and 6 days. The percentage reduction in population (% activity) is determined by comparing the number of dead aphids on the treated plants with those on the untreated plants.

Nephotettix cincticeps = assay: Systemic activity against Nephotettix cincticeps; conditions: 144 h, pots with rice plants in 400 ppm aqueous emulsion solution, larvae in stages 2 and 3, evaluated after 6 days, read-out: percentage reduction in population (% activity)
Protocol: Pots containing rice plants are placed into an aqueous emulsion solution comprising 400 ppm of the active ingredient. The rice plants are subsequently populated with larvae in stages 2 and 3. The test is evaluated after 6 days. The percentage reduction in population (% activity) is determined by comparing the number of leaf hoppers on the treated plants with those on the untreated plants.

[1] = tested on: Heliothis virescens caterpillars; assay: Activity against Heliothis virescens caterpillars; conditions: 144 h, 400 ppm spray on young soybean plants, first larval stage, evaluated after 6 days, read-out: percentage reduction in population or in feeding damage (% activity)
Protocol: Young soybean plants are sprayed with a spray mixture prepared with an aqueous emulsion and comprising 400 ppm of the active ingredient. After the spray coating has dried on, the soybean plants are populated with 10 Heliothis virescens in the first larval stage and placed into a plastic container. The test is evaluated after 6 days. The percentage reduction in population, or the percentage reduction in feeding damage (% activity), is determined by comparing the number of dead caterpillars and the feeding damage on the treated plants with those on the untreated plants.

Bemisia tabaci = assay: Activity against Bemisia tabaci; conditions: 336 h, 400 ppm spray on dwarf bean plants with nymphs, evaluated 14 days after application, read-out: activity (hatching percentages vs untreated control)
Protocol: Dwarf bean plants are placed into gauze cages and populated with adult Bemisia tabaci specimens (white fly). After oviposition has taken place, all adults are removed and, 10 days later, the plants with the nymphs located thereon are treated with a spray mixture of the active ingredients to be tested (concentration 400 ppm), which has been prepared with an aqueous emulsion. The test is evaluated for hatching percentages 14 days after the active ingredient has been applied by comparison with the untreated control batches. […] An activity of over 80% is shown, in particular, by compound Nos. 1.01, 2.01 to 2.08, 2.10 to 2.16, 2.22, 2.23, 3.01, 4.01, 4.02, 4.05, 4.06, 5.02, 5.03, 5.06 to 5.08, 5.10, 5.11, 5.20, 5.21 and 6.09.

Myzus persicae = assay: Systemic activity against Myzus persicae; conditions: roots of pea seedlings in 400 ppm spray mixture, 20° C., evaluated after 3 and 6 days, read-out: percentage reduction in population (% activity)
Protocol: Pea seedlings are infected with Myzus persicae, the roots of the plants are then placed into a spray mixture comprising 400 ppm of the active ingredient, and the plants are incubated at 20° C. The test is evaluated after 3 and 6 days. The percentage reduction in population (% activity) is determined by comparing the number of dead aphids on the treated plants with those on the untreated plants.

Dermanyssus gallinae = assay: Activity against Dermanyssus gallinae; conditions: 72 h, 10 ppm solution, mites in different development stages, after 3 days
Protocol: 2 to 3 ml of a solution comprising 10 ppm of active ingredient and approximately 200 mites in different development stages are placed into a glass container which is open at the top. The container is then sealed with a cottonwool ball, shaken for 10 minutes until the mites are wetted completely, and then briefly turned over so that the remaining test solution can be absorbed by the cottonwool. After 3 days, the mortality of the mites is determined by counting the dead individuals; it is given as a percentage.

O=C(CCCCCC=C(F)F)OCCOc1ccc(Oc2ccccc2)cc1 [Compound 3.01]
> 80%: activity at 400 ppm (Aphis craccivora) | activity at 400 ppm (Nephotettix cincticeps) | activity at 400 ppm [1] | pest or weed control at 400 ppm (Bemisia tabaci)

O=C(CC=C(F)F)OCCOc1ccc(Oc2ccccc2)cc1 [Compound 1.01, 2-(4-phenoxyphenoxy)ethyl-4,4-difluorobut-3-enoate]
> 80%: activity at 400 ppm (Myzus persicae) | activity at 400 ppm (Aphis craccivora) | activity at 400 ppm (Nephotettix cincticeps) | activity at 400 ppm [1] | mortality at 10 ppm (Dermanyssus gallinae) | pest or weed control at 400 ppm (Bemisia tabaci)
